Results from US12528819B2 (priority 2016, dated 2026).

Molecular target: T1, α5β2γ2 subtype GABAAR (Homo sapiens, UniProt P18507+P31644)
T1 construct: expressed in transfected cells
T1 sequence (P31644 32-462): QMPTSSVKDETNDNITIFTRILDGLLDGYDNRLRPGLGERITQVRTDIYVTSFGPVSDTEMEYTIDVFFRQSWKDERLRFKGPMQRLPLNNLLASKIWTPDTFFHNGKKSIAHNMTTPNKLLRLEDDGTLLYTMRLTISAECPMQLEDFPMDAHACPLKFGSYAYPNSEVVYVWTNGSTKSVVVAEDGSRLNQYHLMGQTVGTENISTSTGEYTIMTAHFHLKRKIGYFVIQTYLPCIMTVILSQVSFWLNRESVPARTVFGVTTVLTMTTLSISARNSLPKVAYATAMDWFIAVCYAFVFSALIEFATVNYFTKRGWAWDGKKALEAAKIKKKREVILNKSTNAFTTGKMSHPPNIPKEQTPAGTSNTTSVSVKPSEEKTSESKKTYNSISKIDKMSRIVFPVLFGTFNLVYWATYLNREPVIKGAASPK
T1 sequence (P47870 25-512 partner limits assumed): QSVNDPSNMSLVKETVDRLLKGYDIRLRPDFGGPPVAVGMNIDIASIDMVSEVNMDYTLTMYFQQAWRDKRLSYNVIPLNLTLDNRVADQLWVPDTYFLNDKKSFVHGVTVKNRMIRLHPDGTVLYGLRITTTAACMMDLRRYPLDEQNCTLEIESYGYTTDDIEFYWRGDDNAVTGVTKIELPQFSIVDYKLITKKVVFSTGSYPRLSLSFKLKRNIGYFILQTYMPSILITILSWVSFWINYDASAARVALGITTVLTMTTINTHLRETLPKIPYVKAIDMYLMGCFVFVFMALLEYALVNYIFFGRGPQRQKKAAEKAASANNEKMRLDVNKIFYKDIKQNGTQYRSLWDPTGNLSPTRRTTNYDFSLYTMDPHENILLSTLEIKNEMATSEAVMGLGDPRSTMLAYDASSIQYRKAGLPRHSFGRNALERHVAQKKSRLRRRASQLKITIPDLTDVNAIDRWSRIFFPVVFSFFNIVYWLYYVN
T1 sequence (P18507 40-467 limits assumed): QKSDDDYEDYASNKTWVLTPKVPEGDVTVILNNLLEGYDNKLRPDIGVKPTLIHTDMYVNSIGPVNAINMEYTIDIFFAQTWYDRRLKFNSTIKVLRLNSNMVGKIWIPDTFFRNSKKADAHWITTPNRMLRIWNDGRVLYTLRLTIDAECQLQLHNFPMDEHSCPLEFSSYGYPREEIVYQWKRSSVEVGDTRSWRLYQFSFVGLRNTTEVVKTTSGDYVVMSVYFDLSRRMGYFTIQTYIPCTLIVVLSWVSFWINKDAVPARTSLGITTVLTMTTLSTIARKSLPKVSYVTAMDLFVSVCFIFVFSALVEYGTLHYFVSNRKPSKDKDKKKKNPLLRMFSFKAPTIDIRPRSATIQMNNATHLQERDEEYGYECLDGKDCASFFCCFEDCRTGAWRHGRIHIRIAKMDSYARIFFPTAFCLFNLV
Assay: Positive allosteric modulator activity: potentiation of EC20 GABA current in oocytes
Format: cell-based
Settings: read-out: GABA α5 Functional Data (potentiation), @ 100 nM, reported as ranges
Procedure: (B) Positive Allosteric Modulator Activity of Test Compounds on α5β2γ2 Subtype GABAAR
On day 1, 1 ng/32 nL of GABAA α5β2γ2 cDNA was injected into one oocyte. Test starts on day 2. The cDNA injected to the oocytes was a mix of alpha, beta and gamma, their ratio is 1:1:10 (by weight) and the total weight of the mixed 3 subunits to be injected in one oocyte was 1 ng in 32 nl volume. The injected oocytes can also be tested on day 3. In such case, the cDNA amount injected to the oocytes should be reduced by 20%.
Compounds of the present invention were tested using the following procedures.
• 1). 8 oocytes were placed in 8 chambers of OpusXpress and superfused with Modified Barth's Saline (MBS) at 3 mL/min. Glass electrodes back-filled with 3M KCl (0.5-3 megaohms) were used.
Control test (Diazepam or methyl 3,5-diphenylpyridazine-4-carboxylate) • 1). New oocytes was used to run new test. • 2). […] Oocytes were washed with MBS for 5-10 min. • 4). […] Itest was divided by IGABA to obtain potentiation (%). Test Compounds at Multiple Doses • 1). Repeat the above steps 1), 2) and 3) in the control test. • 2). […] Divide Itest by IGABA to obtain potentiation (%). • 3). Discard all tested oocytes, new oocytes were used and the above steps 1) and 2) were repeated to test second concentration of the same compound. Each oocyte was used for only one concentration test for a single test compound. The steps were repeated for other test compounds.

Structure (SMILES)	activation at 0.1 µM [%]
CCOCc1ncn2c1Cn1c(COC)nnc1-c1cc(Cl)ccc1-2 [Compound 215]	5 to 20
CC#Cc1ncn2c1Cn1c(COc3ccccc3F)nnc1-c1cc(Cl)ccc1-2 [Compound 354]	20 to 50
COCc1nnc2n1Cc1c(C3=N[C@@H](c4ccccc4)CO3)ncn1-c1ccc(Cl)cc1-2 [Compound 264]	20 to 50
Cc1nnn2c1Cc1c(C(=O)OCC(F)(F)F)ncn1-c1ccc(F)cc1-2 [Compound 114]	> 50
COc1ccc2c(c1)-c1nnc(COc3ccccc3)n1Cc1c(Br)ncn1-2 [Compound 232]	5 to 20
COCc1nnc2n1Cc1c(C3=N[C@@H](c4ccc(F)cc4)CO3)ncn1-c1ccc(Cl)cc1-2 [Compound 320]	20 to 50
CCOC(=O)c1ncn2c1Cn1c(COCC(F)(F)F)nnc1-c1cc(Cl)ccc1-2 [Compound 308]	5 to 20
COc1ccc2c(c1)-n1nnc(COc3ccc(F)cc3)c1Cc1c(C#N)ncn1-2 [Compound 222]	20 to 50
COCc1nnc2n1Cc1c(-c3ncco3)ncn1-c1ccc(Cl)cc1-2 [Compound 249]	20 to 50
CCc1nc(-c2ncn3c2Cc2c(Cc4ccccc4)nnn2-c2cc(OC)ccc2-3)no1 [Compound 194]	> 50
COc1ccc2c(c1)-c1nnc(COc3cccc4ccccc34)n1Cc1c(-c3noc(C(C)C)n3)ncn1-2 [Compound 177]	> 50
COc1ccc2c(c1)-n1nncc1Cc1c(C#CCc3ccccc3)ncn1-2 [Compound 413]	5 to 20
C#Cc1ncn2c1Cn1c(COc3ccccc3)nnc1-c1cc(Cl)ccc1-2 [Compound 205]	20 to 50
COc1ccc2c(c1)-c1nnc(COc3ccc(F)cc3)n1Cc1c(C#N)ncn1-2 [Compound 191]	20 to 50
COCc1nnc2n1Cc1c(-c3nc(-c4ccc(F)cc4)co3)ncn1-c1ccc(Cl)cc1-2 [Compound 324]	20 to 50
CCOCc1nnc2n1Cc1c(-c3noc(C(C)C)n3)ncn1-c1ccc(F)cc1-2 [Compound 187]	20 to 50
CC(C)c1nc(-c2ncn3c2Cn2c(COc4ccc(F)cc4)nnc2-c2cc(F)ccc2-3)no1 [Compound 189]	20 to 50
COc1ccc2c(c1)-n1nncc1Cc1c(C3=N[C@@H](c4ccc(Cl)cc4)CO3)ncn1-2 [Compound 368]	5 to 20
Cc1noc(-c2ncn3c2Cc2c(Cc4ccccc4)nnn2-c2cc(F)ccc2-3)n1 [Compound 109]	20 to 50
CCOCc1nnc2n1Cc1c(C3=N[C@@H](c4ccc(F)cc4)CO3)ncn1-c1ccc(Cl)cc1-2 [Compound 325]	20 to 50
COc1ccc2c(c1)-n1nncc1Cc1c(C#Cc3cccnc3)ncn1-2 [Compound 407]	5 to 20
CCOC(=O)c1ncn2c1Cc1c(C)nnn1-c1cc(OC)ccc1-2 [Compound 1]	20 to 50
Cc1nnn2c1Cc1c(C(=O)OC(C)C)ncn1-c1ccc(F)cc1-2 [Compound 112]	5 to 20
COCc1nnc2n1Cc1c(C3=N[C@@H](c4cc(F)ccc4F)CO3)ncn1-c1ccc(Cl)cc1-2 [Compound 335]	5 to 20
Clc1ccc2c(c1)-n1nncc1Cc1c(C#Cc3cccnc3)ncn1-2 [Compound 402]	20 to 50
COCc1nnc2n1Cc1c(C3=N[C@H](c4ccccc4)CO3)ncn1-c1ccc(OC)cc1-2 [Compound 340]	20 to 50
CC(C)OCc1nnc2n1Cc1c(C3=N[C@H](c4ccccc4)CO3)ncn1-c1ccc(Cl)cc1-2 [Compound 268]	5 to 20

Structure (SMILES)	activation at 0.1 µM [%]
COc1ccc2c(c1)-n1nncc1Cc1c(C#Cc3ccc(C(F)(F)F)cc3)ncn1-2 [Compound 406]	20 to 50
Cc1nnn2c1Cc1c(-c3nc(C(C)C)no3)ncn1-c1ccccc1-2 [Compound 132]	20 to 50
Cc1ncn2c1Cc1c(C)nnn1-c1ccccc1-2 [Compound 121]	5 to 20
COc1ccc2c(c1)-n1nncc1Cc1c(C#Cc3ccccc3)ncn1-2 [Compound 404]	5 to 20
CCOCc1nnc2n1Cc1c(C#Cc3ccccc3C)ncn1-c1ccc(Cl)cc1-2 [Compound 311]	5 to 20
C#Cc1ccc2c(c1)-c1nnc(COC)n1Cc1c(-c3nc(-c4ccccc4)co3)ncn1-2 [Compound 302]	5 to 20
COc1ccc2c(c1)-n1nnc(Cc3ccc(F)cc3)c1Cc1c(Br)ncn1-2 [Compound 213]	20 to 50
COCc1nnc2n1Cc1c(-c3nc(-c4ccccc4F)co3)ncn1-c1ccc(Cl)cc1-2 [Compound 323]	20 to 50
Clc1ccc([C@H]2COC(c3ncn4c3Cc3cnnn3-c3cc(Cl)ccc3-4)=N2)cc1 [Compound 361]	20 to 50
COc1ccc2c(c1)-n1nncc1Cc1c(C3=N[C@@H](c4ccc(F)cc4)CO3)ncn1-2 [Compound 367]	5 to 20
COCc1nnc2n1Cc1c(C3=N[C@@H](c4ccc(C(F)(F)F)cc4)CO3)ncn1-c1ccc(Cl)cc1-2 [Compound 337]	20 to 50
COc1ccc2c(c1)-c1nnc(COc3ccc(F)cc3)n1Cc1c(-c3noc(C)n3)ncn1-2 [Compound 163]	20 to 50
COCc1nnc2n1Cc1c(C#Cc3ccccc3)ncn1-c1ccc(Cl)cc1-2 [Compound 285]	5 to 20
CCOC(=O)c1ncn2c1Cn1c(Oc3ccccc3)nnc1-c1cc(OC)ccc1-2 [Compound 104]	5 to 20
COCc1nnc2n1Cc1c(-c3noc(C)n3)ncn1-c1ccc(OC)cc1-2 [Compound 164]	5 to 20
COc1ccc2c(c1)-c1nnc(COCc3cccnc3)n1Cc1c(-c3noc(C(C)C)n3)ncn1-2 [Compound 203]	20 to 50
COc1ccc2c(c1)-c1nnc(COc3ccccc3)n1Cc1c(C(=O)OC(C)C)ncn1-2 [Compound 120]	20 to 50
Cc1nc(-c2ncn3c2Cc2c(C)nnn2-c2cc(F)ccc2-3)no1 [Compound 145]	> 50
COc1ccc2c(c1)-c1nnc(COc3cccc(F)c3)n1Cc1c(-c3noc(C(C)C)n3)ncn1-2 [Compound 179]	> 50
CCOC(=O)c1ncn2c1Cc1c(COc3ccc(F)cc3)nnn1-c1cc(OC)ccc1-2 [Compound 10]	5 to 20
FC(F)(F)COCc1nnc2n1Cc1c(-c3nc(-c4ccccc4)co3)ncn1-c1ccc(Cl)cc1-2 [Compound 313]	20 to 50
COCc1nnc2n1Cc1c(C3=NC(C)CO3)ncn1-c1ccc(Cl)cc1-2 (stereo not drawn) [Compound 243]	20 to 50
Fc1ccccc1OCc1nnc2n1Cc1c(-c3ncco3)ncn1-c1ccc(Cl)cc1-2 [Compound 355]	20 to 50
Fc1ccc([C@H]2COC(c3ncn4c3Cc3cnnn3-c3cc(Cl)ccc3-4)=N2)cc1 [Compound 359]	5 to 20
CCOCc1nnc2n1Cc1c(-c3ncco3)ncn1-c1ccc(Cl)cc1-2 [Compound 341]	5 to 20
CCOC(=O)c1ncn2c1Cc1c(C)nnn1-c1cc(F)ccc1-2 [Compound 2]	20 to 50
CCC#Cc1ncn2c1Cn1c(COC)nnc1-c1cc(Cl)ccc1-2 [Compound 345]	20 to 50
